Results from patent US9949473B2, “Coagulation controlling agents and devices comprising the same” (Becton, Dickinson and Company, priority 2011, dated 2018).
Ends that are not written are not given here.

Tests used:
[1] = system: reconstituted commercial lyophilized human plasma; test: Clotting time of plasma with thrombin/protamine solutions on Stago Compact coagulation analyzer; assay type: biochemical; details: thrombin and protamine in about 20 mM citrate pH about 6, mixed about 1:1 with plasma; FIG. 3
Protocol: Solutions of thrombin and protamine in about 20 mM of citrate at a pH of about 6 were mixed in a ratio of about 1:1 with reconstituted commercial lyophilized human plasma and tested on a Stago Compact coagulation analyzer. The resulting clotting times were measured as a function of thrombin and protamine concentration for a given thrombin concentration. The concentrations listed on the graph of FIG. 3 represent the thrombin/protamine solutions before being mixed with the plasma.

[2] = system: freshly drawn human blood; test: Visual scoring of fibrin mass in serum from blood clotted in thrombin/protamine tubes; details: protamine about 0.5 mg/mL; FIG. 2
Protocol: Protamine sulfate was first resuspended in about 0.5 M hydrochloric acid at a concentration of about 250 mg/mL. This solution was then titrated to a pH of about 6 with 5 N sodium hydroxide. This titration to about pH 6 was performed immediately since prolonged exposure of protamine to low pH, it was believed, would result in hydrolysis and loss of activity. It is also believed that more dilute solutions of hydrochloric acid could be used for preparing the protamine solution.
The protamine solution was then mixed in a ratio of about 1:1 with a solution of about 1250 U/mL of thrombin in about 40 mM sodium citrate at about pH 6.0, containing about 20 mg/mL of a siloxane alkoxylate surfactant, and 2 mg/mL polyvinylpyrrolidone (PVP).
The resulting reagent was filtered and sprayed in 20 μL shots into 13×100 mm polyethyleneterephthalate (PET) tubes. The tubes were then dried by forced hot air, and evacuated and stoppered.
Tubes were filled with freshly drawn human blood and allowed to clot for between about 1 to about 3.5 minutes (randomized) and then centrifuged. The resulting serum was scored by visual assessment for the presence of a “fibrin mass” in the serum compartment on a scale of 0 to 3, with 3 being the most severe.

[3] = target: T1, thrombin (Homo sapiens, UniProt P00734); test: Accelerated stability of sprayed thrombin with protamine (thrombin activity on Stago Compact); assay type: biochemical; details: about 45% relative humidity
T1 construct: In preferred embodiments, thrombin is alpha-thrombin
Protocol: A mixture of thrombin (about 1250 U/mL), protamine (about 125 mg/mL or about 62.5 mg/mL), and a siloxane alkoxylate surfactant was prepared in about 20 mM citrate at a pH of about 6.0. About 20 μL of this mixture was sprayed into 13×100 mm PET tubes. The tubes were dried by forced hot air, evacuated, and stored in the refrigerator. At the initiation of the study, the tubes were uncapped and placed in a controlled environmental chamber previously equilibrated to about 50° C. and about 45% relative humidity. At various time intervals, tubes were removed and evaluated for thrombin activity on the Stago Compact coagulation analyzer. The error bars indicate the 95% confidence interval for the thrombin activity with 5 replicates.
When the thrombin activity of subsequent time points were normalized on the initial value, the resulting curves could be used to compare the relative stability of each formulation (see FIG. 5).

[4] = target: T1, thrombin; test: Accelerated stability of sprayed thrombin with para-aminobenzamidine (thrombin activity on Stago Compact); assay type: biochemical; details: para-aminobenzamidine about 3 mM in about 5 mM citrate or isocitrate pH about 6.1; sealed tubes at about 43° C., about 75% relative humidity; compared to citrates alone; FIG. 6, FIG. 7
Protocol: The coagulation controlling agent para-aminobenzamidine was evaluated to determine if it improved the stability of sprayed thrombin under accelerated stability conditions. Without wishing to be bound by any particular theory, it is believed that para-aminobenzamidine stabilizes the spray-dried thrombin under conditions of extremely high humidity, where thrombin autolytic degradation can be rapid, even at room temperature.
Thrombin was prepared in about 5 mM citrate or isocitrate at a pH of about 6.1. Para-aminobenzamidine was added at a concentration of about 3 mM. About 16 μL of this solution was sprayed into 13×100 mm PET tubes. The tubes were dried by forced hot air, and evacuated. Sealed tubes were then placed in a controlled environmental chamber previously equilibrated to about 43° C. and about 75% relative humidity. At various time intervals, the tubes were removed and evaluated for thrombin activity on the Stago Compact coagulation analyzer. The error bars indicate the 95% confidence interval for the thrombin activity with 5 replicates.

Row | relative stability (thrombin activity normalized on the initial value) ([3]; about 50° C., compared with thrombin formulations without protamine, FIG. 5) | thrombin stability over time [4] | Compound | clotting time as a function of protamine concentration [1] | performance of the tube (fibrin mass formation) [2] | thrombin activity over time ([3]; thrombin about 1250 U/mL, protamine about 125 or about 62.5 mg/mL, sprayed and dried in PET tubes, uncapped at about 50° C., FIG. 4)
1 | more stable |  | Protamine sulfate (PRRRRSSSRPVRRRRRPRVSRRRRRRGGRRRR; also: sulfate salt) [coagulation controlling agent; ID; NO; 1 in some embodiments] | decreasing clotting time with increasing protamine concentration | improved the performance of the tube dramatically | better with the protamine than without it
2 |  | preserves thrombin stability over time | N=C(N)c1ccc(N)cc1 [para-aminobenzamidine] |  |  | 
